From ChEMBL document CHEMBL3867468, “Discovery of 4-chloro-3-(5-(pyridin-3-yl)-1,2,4-oxadiazole-3-yl)benzamides as novel RET kinase inhibitors” (Bioorg Med Chem Lett, 2016) come the findings set out here.

Assay [1] deals with Proto-oncogene tyrosine-protein kinase receptor Ret (Homo sapiens, UniProt P07949).
Description: Inhibition of RET (unknown origin) using poly[Glu:Tyr] (4:1) as substrate after 60 mins by ELISA
Assay [2] is described as follows: Inhibition of CCDC6/RET V804M mutant (unknown origin) expressed in mouse BaF3 cells assessed as reduction in cell proliferation after 72 hrs by MTT assay. It counts as cell-based. Particulars: BaF3, 72 h. On the technique in general: Tetrazolium dyes change colour on reduction, which living cells bring about.

SMILES strings stand for the structures.

Chain of Proto-oncogene tyrosine-protein kinase receptor Ret (P07949 whole entry): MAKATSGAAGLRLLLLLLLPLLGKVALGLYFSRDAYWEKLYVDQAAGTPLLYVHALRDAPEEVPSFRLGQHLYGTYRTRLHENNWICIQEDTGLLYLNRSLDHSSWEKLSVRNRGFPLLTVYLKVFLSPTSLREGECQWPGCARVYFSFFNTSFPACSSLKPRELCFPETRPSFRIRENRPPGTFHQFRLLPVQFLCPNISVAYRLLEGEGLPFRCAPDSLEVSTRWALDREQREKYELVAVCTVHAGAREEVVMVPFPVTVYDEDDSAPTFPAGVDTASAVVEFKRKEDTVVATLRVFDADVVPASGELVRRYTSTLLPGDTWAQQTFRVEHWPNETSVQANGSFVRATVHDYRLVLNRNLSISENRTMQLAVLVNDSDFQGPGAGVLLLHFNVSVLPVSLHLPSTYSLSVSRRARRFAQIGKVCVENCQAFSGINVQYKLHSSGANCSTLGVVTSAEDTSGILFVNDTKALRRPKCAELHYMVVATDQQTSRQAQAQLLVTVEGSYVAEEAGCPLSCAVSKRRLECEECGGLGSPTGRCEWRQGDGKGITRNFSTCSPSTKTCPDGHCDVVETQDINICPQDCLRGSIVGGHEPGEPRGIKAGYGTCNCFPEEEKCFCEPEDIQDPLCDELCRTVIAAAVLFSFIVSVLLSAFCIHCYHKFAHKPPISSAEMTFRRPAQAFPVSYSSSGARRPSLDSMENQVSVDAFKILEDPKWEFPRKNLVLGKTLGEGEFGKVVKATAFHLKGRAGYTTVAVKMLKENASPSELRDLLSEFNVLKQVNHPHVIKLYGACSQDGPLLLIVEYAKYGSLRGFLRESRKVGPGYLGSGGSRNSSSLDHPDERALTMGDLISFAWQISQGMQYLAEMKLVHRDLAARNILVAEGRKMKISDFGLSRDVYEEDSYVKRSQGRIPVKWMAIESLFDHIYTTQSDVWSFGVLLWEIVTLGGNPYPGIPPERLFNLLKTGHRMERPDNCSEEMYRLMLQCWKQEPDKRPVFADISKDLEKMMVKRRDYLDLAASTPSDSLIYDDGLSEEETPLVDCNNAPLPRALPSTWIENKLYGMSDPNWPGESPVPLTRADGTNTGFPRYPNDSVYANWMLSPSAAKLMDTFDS

Broadly, the IC50 is the concentration that inhibits the measured activity by half. For `CN1CCN(Cc2ccc(NC(=O)c3cccc(-c4noc(-c5cccnc5)n4)c3)cc2C(F)(F)F)CC1`, half-maximal inhibition in assay [1] (IC50) was put at 17.9 nM. Still for that read-out and setting: as for `CN1CCN(Cc2ccc(NC(=O)c3ccc(Cl)c(-c4noc(-c5ccncc5)n4)c3)cc2C(F)(F)F)CC1`, the figure is 26.6 nM; as for `CN1CCN(Cc2ccc(NC(=O)c3ccc(Cl)c(-c4nc(-c5cccnc5)no4)c3)cc2C(F)(F)F)CC1`, 12.4 nM. In turn, `CN1CCN(Cc2ccc(NC(=O)c3ccc(Cl)c(-c4noc(-c5cccnc5)n4)c3)cc2C(F)(F)F)CC1` returned an IC50 in assay [1] of 7.3 nM. The same measure, in the same setting: the value for `CN1CCN(Cc2ccc(NC(=O)c3ccc(Cl)c(C#Cc4cccnc4)c3)cc2C(F)(F)F)CC1` was 2.5 nM; that for `CN1CCN(Cc2ccc(NC(=O)c3ccc(Cl)c(-c4cnc(-c5cccnc5)o4)c3)cc2C(F)(F)F)CC1` was 19.4 nM. As for `Cc1ccc(C(=O)Nc2ccc(CN3CCN(C)CC3)c(C(F)(F)F)c2)cc1C#Cc1cnc2cccnn12` [PONATINIB], the IC50 in assay [2] is 136 nM. `Cc1ccc(C(=O)Nc2ccc(CN3CCN(C)CC3)c(C(F)(F)F)c2)cc1-c1noc(-c2cccnc2)n1` yielded a half-maximal inhibitory concentration (IC50) in assay [1] of 108 nM. In the case of `COc1ccc(-c2nc(-c3cc(C(=O)Nc4ccc(CN5CCN(C)CC5)c(C(F)(F)F)c4)ccc3Cl)no2)cn1`, inhibition in assay [1] was half-maximal at 342 nM (IC50).

For the molecule `CN1CCN(Cc2ccc(NC(=O)c3ccc(Cl)c(-c4nc(-c5cccnc5)co4)c3)cc2C(F)(F)F)CC1`, the IC50 in assay [1] is 21.4 nM. Molecule `CN1CCN(Cc2ccc(NC(=O)c3ccc(Cl)c(-c4nnc(-c5cccnc5)o4)c3)cc2C(F)(F)F)CC1` returned an IC50 in assay [1] of 138 nM. The same measure, in the same setting: as for `CN1CCN(Cc2ccc(NC(=O)c3ccc(Cl)c(-c4noc(-c5cncc(N6CCOCC6)c5)n4)c3)cc2C(F)(F)F)CC1`, the figure is 2.1 nM. For the molecule `CN1CCN(Cc2ccc(NC(=O)c3ccc(Cl)c(-c4noc(-c5cncc(-c6cnn(C)c6)c5)n4)c3)cc2C(F)(F)F)CC1`, the IC50 in assay [2] was 442 nM; in assay [1] it was 1.8 nM. Take `COCCOc1cncc(-c2nc(-c3cc(C(=O)Nc4ccc(CN5CCN(C)CC5)c(C(F)(F)F)c4)ccc3Cl)no2)c1`: in assay [1], it took 11.4 nM to reach half-maximal inhibition (IC50).
